{
  "source": "patent US8759500B2",
  "about": "“Crystalline forms of a macrolide, and uses therefor” (Cempra Pharmaceuticals, Inc., priority 2010, dated 2014)",
  "key": {"Dynamic vapor sorption": {"assay": "Dynamic vapor sorption", "format": "physicochemical", "method": "The new physical form, Form I of CEM-101 is a crystalline form which may be described by its X-ray powder diffraction pattern. Peaks at approximate positions of about °2θ=8.8, 10.5, 13.2 and 18.6 are representative of this crystalline form. A more detailed analysis of the peaks is described in Tables 1-2 below. […] Water determination by Karl Fisher titration in typical lots is 0.6 to 1.1%. […] Form I of CEM-101 melts at about 200° C. by DSC analysis.\nThe new physical form, Form II of CEM-101 is a crystalline form which may be described by its X-ray powder diffraction pattern. Peaks at approximate positions of about °2θ=5.6, 7.9, 9.3, 11.7, 12.9 and 16.7 are representative of this crystalline form. A more detailed analysis of the peaks is described in Tables 3-4 below. Based on a single crystal X-ray determination and dynamic vapor sorption analysis, Form II appears to be a non-hygroscopic anhydrous crystalline form that melts at about 225° C. as a single endothermic event by DSC analysis. It is appreciated herein that non-hygroscopic solids, such as Form II described herein, may be advantageous in the preparation of pharmaceutical compositions. Such advantages include improved handling and stability properties in manufacturing, improved lot to lot quality control."}, "[1]": {"assay": "Stability of Form I and Form II under various storage conditions", "format": "physicochemical", "conditions": "during the entire study, all storage conditions", "source_text": "In each case, the test material was first placed in Primary Packaging Material (LLDPE bag within a HMHDPE/LDPE/LDPE blend bag, and then heat sealed). The Primary Packaging Material was placed in Secondary Packaging Material (HDPE drum). All other impurities were less than 1% at each time point."}, "[2]": {"conditions": "female, Balb/c, mouse, in vivo, po"}, "[3]": {"conditions": "Balb/c, mouse, in vivo, po, 20 mg/kg", "description": "(§1) The doses were prepared as 2.0 mg/mL or 10.0 mg/mL in a vehicle of 0.5% (w/v) carboxymethyl cellulose in water and a dose volume of 10 mL/kg b.w. Blood samples were collected at various time points during the next 6 h post dose."}, "physchem [4]": {"assay": "physchem", "conditions": "pH 6.03, saline or isotonic, thermodynamic from solid"}, "in vivo [5]": {"assay": "in vivo", "conditions": "Balb/c, mouse, po", "description": "as §1"}, "in vivo [6]": {"assay": "in vivo", "conditions": "female, Balb/c, mouse, po; for AUC(0-t): AUC 0-24; for half-life: t½"}, "physchem [7]": {"assay": "physchem", "conditions": "26 °C, thermodynamic from solid"}},
  "note": "Read-outs that look alike come from different tables or passages of the source.",
  "data": [
    {"smiles": "CC[C@H]1OC(=O)[C@@](C)(F)C(=O)[C@H](C)[C@@H](O[C@@H]2O[C@H](C)C[C@H](N(C)C)[C@H]2O)[C@](C)(OC)C[C@@H](C)C(=O)[C@H](C)[C@H]2N(CCCCn3cc(-c4cccc(N)c4)nn3)C(=O)O[C@]12C", "note": "[Form I, solithromycin]", "values": [
      {"measurement": "hygroscopicity", "setting": "Dynamic vapor sorption", "result": "partially hygroscopic"},
      {"measurement": "change in color of the test material", "setting": "[1]", "result": "no observed change in color"},
      {"measurement": "AUC 0-24", "setting": "[2]; 5 mg/kg", "result": 3.30},
      {"measurement": "Cmax", "setting": "[2]; 5 mg/kg", "result": 1430, "unit": "ng/mL"},
      {"measurement": "Tmax", "setting": "[2]; 5 mg/kg", "result": 0.6, "unit": "h"},
      {"measurement": "t½", "setting": "[2]; 5 mg/kg", "result": 1.32, "unit": "h"},
      {"measurement": "AUC 0-24", "setting": "[2]; 10 mg/kg", "result": 17.7},
      {"measurement": "Cmax", "setting": "[2]; 10 mg/kg", "result": 4680, "unit": "ng/mL"},
      {"measurement": "Tmax", "setting": "[2]; 10 mg/kg", "result": 2.4, "unit": "h"},
      {"measurement": "t½", "setting": "[2]; 10 mg/kg", "result": 3.6, "unit": "h"},
      {"measurement": "AUC 0-24", "setting": "[2]; 20 mg/kg", "result": 26.2},
      {"measurement": "Cmax", "setting": "[2]; 20 mg/kg", "result": 6640, "unit": "ng/mL"},
      {"measurement": "Tmax", "setting": "[2]; 20 mg/kg", "result": 1.6, "unit": "h"},
      {"measurement": "t½", "setting": "[2]; 20 mg/kg", "result": 2.1, "unit": "h"},
      {"measurement": "AUCextrap", "setting": "[3]; female", "result": 24, "unit": "%"},
      {"measurement": "AUCextrap", "setting": "[3]; male", "result": 24, "unit": "%"},
      {"measurement": "solubility at 6 h", "setting": "physchem [4]", "result": 1410, "unit": "µg/mL"},
      {"measurement": "AUC(0-inf)", "setting": "in vivo [5]; female, 20 mg/kg", "result": 70000, "unit": "ng·h/mL"},
      {"measurement": "AUC(0-t)", "setting": "in vivo [5]; female, 20 mg/kg", "result": 53000, "unit": "ng·h/mL"},
      {"measurement": "Cmax", "setting": "in vivo [5]; female, 20 mg/kg", "result": 13600, "unit": "ng/mL"},
      {"measurement": "Tmax", "setting": "in vivo [5]; female, 20 mg/kg", "result": 0.5, "unit": "h"},
      {"measurement": "concentration at 0 h", "setting": "in vivo [5]; female, 20 mg/kg", "result": 0, "unit": "ng/mL"},
      {"measurement": "concentration at 0.25 h", "setting": "in vivo [5]; female, 20 mg/kg", "result": "8200 ± 2400", "unit": "ng/mL"},
      {"measurement": "concentration at 0.5 h", "setting": "in vivo [5]; female, 20 mg/kg", "result": "13600 ± 2000", "unit": "ng/mL"},
      {"measurement": "concentration at 1 h", "setting": "in vivo [5]; female, 20 mg/kg", "result": "12000 ± 1700", "unit": "ng/mL"},
      {"measurement": "concentration at 2 h", "setting": "in vivo [5]; female, 20 mg/kg", "result": "11300 ± 1400", "unit": "ng/mL"},
      {"measurement": "concentration at 4 h", "setting": "in vivo [5]; female, 20 mg/kg", "result": "7700 ± 700", "unit": "ng/mL"},
      {"measurement": "concentration at 6 h", "setting": "in vivo [5]; female, 20 mg/kg", "result": "4200 ± 400", "unit": "ng/mL"},
      {"measurement": "AUC(0-t)", "setting": "in vivo [5]; female, 100 mg/kg", "result": 91000, "unit": "ng·h/mL"},
      {"measurement": "Cmax", "setting": "in vivo [5]; female, 100 mg/kg", "result": 19500, "unit": "ng/mL"},
      {"measurement": "Tmax", "setting": "in vivo [5]; female, 100 mg/kg", "result": 6, "unit": "h"},
      {"measurement": "concentration at 0 h", "setting": "in vivo [5]; female, 100 mg/kg", "result": 0, "unit": "ng/mL"},
      {"measurement": "concentration at 0.25 h", "setting": "in vivo [5]; female, 100 mg/kg", "result": "11900 ± 1700", "unit": "ng/mL"},
      {"measurement": "concentration at 0.5 h", "setting": "in vivo [5]; female, 100 mg/kg", "result": "11600 ± 1600", "unit": "ng/mL"},
      {"measurement": "concentration at 1 h", "setting": "in vivo [5]; female, 100 mg/kg", "result": "14700 ± 2300", "unit": "ng/mL"},
      {"measurement": "concentration at 2 h", "setting": "in vivo [5]; female, 100 mg/kg", "result": "14100 ± 2900", "unit": "ng/mL"},
      {"measurement": "concentration at 4 h", "setting": "in vivo [5]; female, 100 mg/kg", "result": "16000 ± 2300", "unit": "ng/mL"},
      {"measurement": "concentration at 6 h", "setting": "in vivo [5]; female, 100 mg/kg", "result": "19500 ± 2300", "unit": "ng/mL"},
      {"measurement": "AUC(0-inf)", "setting": "in vivo [5]; male, 20 mg/kg", "result": 46000, "unit": "ng·h/mL"},
      {"measurement": "AUC(0-t)", "setting": "in vivo [5]; male, 20 mg/kg", "result": 35000, "unit": "ng·h/mL"},
      {"measurement": "Cmax", "setting": "in vivo [5]; male, 20 mg/kg", "result": 9500, "unit": "ng/mL"},
      {"measurement": "Tmax", "setting": "in vivo [5]; male, 20 mg/kg", "result": 1, "unit": "h"},
      {"measurement": "concentration at 0 h", "setting": "in vivo [5]; male, 20 mg/kg", "result": 0, "unit": "ng/mL"},
      {"measurement": "concentration at 0.25 h", "setting": "in vivo [5]; male, 20 mg/kg", "result": "5300 ± 1800", "unit": "ng/mL"},
      {"measurement": "concentration at 0.5 h", "setting": "in vivo [5]; male, 20 mg/kg", "result": "7700 ± 1600", "unit": "ng/mL"},
      {"measurement": "concentration at 1 h", "setting": "in vivo [5]; male, 20 mg/kg", "result": "9500 ± 900", "unit": "ng/mL"},
      {"measurement": "concentration at 2 h", "setting": "in vivo [5]; male, 20 mg/kg", "result": "6400 ± 800", "unit": "ng/mL"},
      {"measurement": "concentration at 4 h", "setting": "in vivo [5]; male, 20 mg/kg", "result": "5900 ± 600", "unit": "ng/mL"},
      {"measurement": "concentration at 6 h", "setting": "in vivo [5]; male, 20 mg/kg", "result": "2600 ± 800", "unit": "ng/mL"},
      {"measurement": "AUC(0-t)", "setting": "in vivo [5]; male, 100 mg/kg", "result": 83500, "unit": "ng·h/mL"},
      {"measurement": "Cmax", "setting": "in vivo [5]; male, 100 mg/kg", "result": 17400, "unit": "ng/mL"},
      {"measurement": "Tmax", "setting": "in vivo [5]; male, 100 mg/kg", "result": 4, "unit": "h"},
      {"measurement": "concentration at 0 h", "setting": "in vivo [5]; male, 100 mg/kg", "result": 0, "unit": "ng/mL"},
      {"measurement": "concentration at 0.25 h", "setting": "in vivo [5]; male, 100 mg/kg", "result": "11300 ± 2500", "unit": "ng/mL"},
      {"measurement": "concentration at 0.5 h", "setting": "in vivo [5]; male, 100 mg/kg", "result": "10700 ± 3000", "unit": "ng/mL"},
      {"measurement": "concentration at 1 h", "setting": "in vivo [5]; male, 100 mg/kg", "result": "13100 ± 3200", "unit": "ng/mL"},
      {"measurement": "concentration at 2 h", "setting": "in vivo [5]; male, 100 mg/kg", "result": "13400 ± 3100", "unit": "ng/mL"},
      {"measurement": "concentration at 4 h", "setting": "in vivo [5]; male, 100 mg/kg", "result": "17400 ± 2900", "unit": "ng/mL"},
      {"measurement": "concentration at 6 h", "setting": "in vivo [5]; male, 100 mg/kg", "result": "12000 ± 2000", "unit": "ng/mL"},
      {"measurement": "AUC(0-t)", "setting": "in vivo [6]; 5 mg/kg", "result": 3160, "unit": "ng·h/mL"},
      {"measurement": "Cmax", "setting": "in vivo [6]; 5 mg/kg", "result": 1540, "unit": "ng/mL"},
      {"measurement": "Tmax", "setting": "in vivo [6]; 5 mg/kg", "result": 0.5, "unit": "h"},
      {"measurement": "half-life", "setting": "in vivo [6]; 5 mg/kg", "result": 1.32, "unit": "h"},
      {"measurement": "AUC(0-t)", "setting": "in vivo [6]; 10 mg/kg", "result": 17200, "unit": "ng·h/mL"},
      {"measurement": "Cmax", "setting": "in vivo [6]; 10 mg/kg", "result": 4090, "unit": "ng/mL"},
      {"measurement": "Tmax", "setting": "in vivo [6]; 10 mg/kg", "result": 2, "unit": "h"},
      {"measurement": "half-life", "setting": "in vivo [6]; 10 mg/kg", "result": 2.95, "unit": "h"},
      {"measurement": "AUC(0-t)", "setting": "in vivo [6]; 20 mg/kg", "result": 26700, "unit": "ng·h/mL"},
      {"measurement": "Cmax", "setting": "in vivo [6]; 20 mg/kg", "result": 5910, "unit": "ng/mL"},
      {"measurement": "Tmax", "setting": "in vivo [6]; 20 mg/kg", "result": 2, "unit": "h"},
      {"measurement": "half-life", "setting": "in vivo [6]; 20 mg/kg", "result": 1.91, "unit": "h"},
      {"measurement": "solubility at 6 h", "setting": "physchem [7]; pH 1.2, simulated gastric fluid", "result": 4810, "unit": "µg/mL"},
      {"measurement": "solubility at 6 h", "setting": "physchem [7]; pH 4, aqueous buffer", "result": 4660, "unit": "µg/mL"},
      {"measurement": "solubility at 6 h", "setting": "physchem [7]; pH 7.4, aqueous buffer", "result": 2220, "unit": "µg/mL"},
      {"measurement": "solubility at 6 h", "setting": "physchem [7]; pH 9.2, aqueous buffer", "result": 1750, "unit": "µg/mL"}
    ]}
  ]
}
